Measured values published in PMC3100199 (ACS medicinal chemistry letters, 2011).

Legend:
[1] = target: T1, PKD1 (Homo sapiens, UniProt Q15139); conditions: PKD; cited from earlier work
T1 sequence (Q15139 1-912): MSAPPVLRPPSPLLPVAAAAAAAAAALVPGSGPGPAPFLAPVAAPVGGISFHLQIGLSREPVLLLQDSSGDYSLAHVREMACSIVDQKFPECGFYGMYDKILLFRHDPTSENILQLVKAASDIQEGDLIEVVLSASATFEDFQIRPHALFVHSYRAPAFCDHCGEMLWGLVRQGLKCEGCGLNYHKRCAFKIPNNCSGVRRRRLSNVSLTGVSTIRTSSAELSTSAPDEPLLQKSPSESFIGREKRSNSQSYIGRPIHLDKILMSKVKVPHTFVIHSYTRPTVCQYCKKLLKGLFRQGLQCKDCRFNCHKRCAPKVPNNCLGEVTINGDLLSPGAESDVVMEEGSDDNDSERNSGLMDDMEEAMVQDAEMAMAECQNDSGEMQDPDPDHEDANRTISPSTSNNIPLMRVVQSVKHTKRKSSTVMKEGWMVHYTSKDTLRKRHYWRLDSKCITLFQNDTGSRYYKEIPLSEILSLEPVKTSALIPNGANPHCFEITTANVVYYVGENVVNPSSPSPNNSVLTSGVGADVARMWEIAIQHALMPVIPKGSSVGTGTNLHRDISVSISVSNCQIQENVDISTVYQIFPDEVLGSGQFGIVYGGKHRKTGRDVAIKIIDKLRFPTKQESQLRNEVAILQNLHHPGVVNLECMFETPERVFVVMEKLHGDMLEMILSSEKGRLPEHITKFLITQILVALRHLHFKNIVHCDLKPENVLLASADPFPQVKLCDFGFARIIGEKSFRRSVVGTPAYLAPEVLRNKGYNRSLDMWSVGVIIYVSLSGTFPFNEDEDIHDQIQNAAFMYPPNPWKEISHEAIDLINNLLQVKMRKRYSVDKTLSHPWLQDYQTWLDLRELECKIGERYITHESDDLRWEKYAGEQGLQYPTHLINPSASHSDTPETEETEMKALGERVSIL

[2] = target: PKCδ (Homo sapiens, UniProt Q05655); assay: Selectivity assay against PKCδ; assay type: biochemical; conditions: selectivity counterscreen
[3] = target: PKCβI (Homo sapiens, UniProt P05771); assay: Selectivity assay against PKCβI; assay type: biochemical; conditions: selectivity counterscreen
[4] = target: PKCα (Homo sapiens, UniProt P17252); assay: Selectivity assay against PKCα; assay type: biochemical; conditions: selectivity counterscreen
[5] = target: T2, PKD1 autophosphorylation at S916 in LNCaP prostate cancer cells (Homo sapiens, UniProt Q15139); assay: Cellular PKD1 autophosphorylation at S916; assay type: cell-based; conditions: vs CID755673
T2 sequence (Q15139 1-912): T1 sequence (Q15139 1-912)

[6] = target: T1, PKD1; assay: PKD1 radiometric kinase activity assay; assay type: biochemical; conditions: ratio of in vitro IC50 vs CID755673
[7] = in vivo studies; cited from earlier work

Sequence of PKCδ (Q05655 whole entry): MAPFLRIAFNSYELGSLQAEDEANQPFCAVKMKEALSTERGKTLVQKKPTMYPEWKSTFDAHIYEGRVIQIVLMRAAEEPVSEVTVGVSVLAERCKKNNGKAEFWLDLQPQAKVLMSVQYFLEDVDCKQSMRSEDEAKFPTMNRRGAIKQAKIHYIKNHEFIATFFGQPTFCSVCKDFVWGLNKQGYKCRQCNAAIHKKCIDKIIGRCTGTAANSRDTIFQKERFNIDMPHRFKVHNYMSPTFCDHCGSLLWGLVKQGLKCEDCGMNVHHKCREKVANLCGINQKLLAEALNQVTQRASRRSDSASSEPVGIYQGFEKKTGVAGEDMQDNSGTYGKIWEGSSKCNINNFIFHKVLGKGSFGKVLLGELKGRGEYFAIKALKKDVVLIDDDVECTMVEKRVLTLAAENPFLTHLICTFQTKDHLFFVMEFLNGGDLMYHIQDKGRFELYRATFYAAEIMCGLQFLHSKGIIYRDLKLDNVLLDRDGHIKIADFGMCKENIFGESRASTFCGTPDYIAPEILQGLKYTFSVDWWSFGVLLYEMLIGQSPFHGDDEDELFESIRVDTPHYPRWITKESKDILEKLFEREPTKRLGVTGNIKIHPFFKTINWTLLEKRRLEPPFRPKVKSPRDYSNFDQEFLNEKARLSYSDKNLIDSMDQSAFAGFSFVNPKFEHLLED
Sequence of PKCβI (P05771 whole entry): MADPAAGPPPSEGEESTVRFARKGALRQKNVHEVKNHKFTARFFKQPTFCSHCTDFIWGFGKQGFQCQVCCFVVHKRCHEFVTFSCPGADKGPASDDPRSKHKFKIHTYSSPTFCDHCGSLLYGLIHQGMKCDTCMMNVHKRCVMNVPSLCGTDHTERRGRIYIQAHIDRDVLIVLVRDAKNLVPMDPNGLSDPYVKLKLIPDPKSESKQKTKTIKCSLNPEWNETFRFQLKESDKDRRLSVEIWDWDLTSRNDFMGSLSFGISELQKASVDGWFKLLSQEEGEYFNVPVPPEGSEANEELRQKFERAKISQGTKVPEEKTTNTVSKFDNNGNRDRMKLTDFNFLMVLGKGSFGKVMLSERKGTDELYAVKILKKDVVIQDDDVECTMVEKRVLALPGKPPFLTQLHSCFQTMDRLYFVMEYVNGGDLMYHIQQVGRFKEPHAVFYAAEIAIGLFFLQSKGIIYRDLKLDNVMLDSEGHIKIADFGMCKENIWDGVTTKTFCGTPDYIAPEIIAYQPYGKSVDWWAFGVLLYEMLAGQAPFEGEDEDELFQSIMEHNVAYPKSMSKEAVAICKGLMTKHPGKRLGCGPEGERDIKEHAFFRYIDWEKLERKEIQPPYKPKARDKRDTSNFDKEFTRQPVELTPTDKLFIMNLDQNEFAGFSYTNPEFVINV

Structure (SMILES) | mode of inhibition (ATP competition) [1] | activity against PKCδ [2] | activity against PKCβI [3] | activity against PKCα [4] | improvement (lowering) of cellular IC50 compared to CID755673 [5] [fold] | improvement in PKD1 in vitro potency over CID755673 [6] [fold] | plasma half-life [7]
O=C1NCCCc2c1oc1ccc(O)cc21 [CID755673] | not an ATP-competitive inhibitor |  |  |  |  |  | 
COc1ncc2sc3c(c2n1)SCCNC3=O [kmg-NB4-23] |  | did not detect significant activities | did not detect significant activities | did not detect significant activities |  |  | 
O=C1NCCCc2c1[nH]c1ccc(O)cc21 [kb-NB123-57] |  | did not detect significant activities | did not detect significant activities | did not detect significant activities |  |  | 
[N-]=[N+]=Nc1ccc2sc3c(c2c1)SCCNC3=O [mcf292-08] |  | did not detect significant activities | did not detect significant activities | did not detect significant activities |  |  | 
O=C1NCCSc2c1sc1ccc(O)cc21 [kb-NB142-70] |  |  |  |  | 5 | ~7 | short plasma half-life
